According to ChEMBL document CHEMBL5291721, “A preclinical secondary pharmacology resource illuminates target-adverse drug reaction associations of marketed drugs” (Nat Commun, 2023):

Assays:
[1] = biological target: Bile salt export pump (Homo sapiens, UniProt O95342); format: functional
[2] = biological target: Acetylcholinesterase (Homo sapiens, UniProt P22303); format: functional
[3] = biological target: 3',5'-cyclic-AMP phosphodiesterase 4A (Homo sapiens, UniProt P27815); format: functional
[4] = biological target: cGMP-inhibited 3',5'-cyclic phosphodiesterase 3A (Homo sapiens, UniProt Q14432); format: functional
[5] = biological target: T1, Thromboxane A2 receptor (Homo sapiens, UniProt P21731); format: functional, cell-based
T1 sequence (P21731 whole entry): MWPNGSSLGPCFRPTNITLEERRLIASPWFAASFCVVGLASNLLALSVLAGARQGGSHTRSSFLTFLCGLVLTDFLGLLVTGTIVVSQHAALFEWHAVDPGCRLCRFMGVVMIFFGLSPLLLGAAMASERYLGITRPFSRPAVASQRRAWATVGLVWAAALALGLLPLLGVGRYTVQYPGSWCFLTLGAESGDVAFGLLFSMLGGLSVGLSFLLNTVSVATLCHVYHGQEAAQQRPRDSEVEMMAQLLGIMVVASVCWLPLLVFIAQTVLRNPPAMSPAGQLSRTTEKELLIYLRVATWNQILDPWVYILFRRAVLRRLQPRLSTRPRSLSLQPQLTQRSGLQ

[6] = biological target: T2, Prostaglandin G/H synthase 1 (Homo sapiens, UniProt P23219); format: functional
[7] = biological target: D(3) dopamine receptor (Homo sapiens, UniProt P35462)
[8] = biological target: T2, Prostaglandin G/H synthase 1; format: functional; remark: listed apart in the source
[9] = biological target: D(1A) dopamine receptor (Homo sapiens, UniProt P21728)
[10] = biological target: Mu-type opioid receptor (Homo sapiens, UniProt P35372)
[11] = biological target: Sodium-dependent dopamine transporter (Homo sapiens, UniProt Q01959)
[12] = biological target: T3, Amine oxidase [flavin-containing] A (Homo sapiens, UniProt P21397); format: functional
T3 sequence (P21397 whole entry): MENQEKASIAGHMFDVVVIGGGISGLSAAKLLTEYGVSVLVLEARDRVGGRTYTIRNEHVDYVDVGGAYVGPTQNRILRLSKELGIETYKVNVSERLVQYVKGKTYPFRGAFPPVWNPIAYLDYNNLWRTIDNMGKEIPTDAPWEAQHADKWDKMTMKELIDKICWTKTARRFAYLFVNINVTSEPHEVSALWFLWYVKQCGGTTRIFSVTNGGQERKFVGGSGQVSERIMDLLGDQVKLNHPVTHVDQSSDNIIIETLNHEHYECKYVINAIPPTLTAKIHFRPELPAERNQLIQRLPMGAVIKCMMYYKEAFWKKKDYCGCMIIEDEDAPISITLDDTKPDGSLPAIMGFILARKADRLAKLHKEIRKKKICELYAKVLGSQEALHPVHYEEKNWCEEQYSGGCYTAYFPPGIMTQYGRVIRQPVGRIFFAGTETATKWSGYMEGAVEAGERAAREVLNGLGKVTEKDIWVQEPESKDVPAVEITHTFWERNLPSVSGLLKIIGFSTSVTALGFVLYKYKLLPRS

[13] = biological target: Prothrombin (Homo sapiens, UniProt P00734); format: functional
[14] = biological target: Sodium-dependent noradrenaline transporter (Homo sapiens, UniProt P23975)
[15] = biological target: T4, 5-hydroxytryptamine receptor 1A (Homo sapiens, UniProt P08908)
T4 sequence (P08908 whole entry): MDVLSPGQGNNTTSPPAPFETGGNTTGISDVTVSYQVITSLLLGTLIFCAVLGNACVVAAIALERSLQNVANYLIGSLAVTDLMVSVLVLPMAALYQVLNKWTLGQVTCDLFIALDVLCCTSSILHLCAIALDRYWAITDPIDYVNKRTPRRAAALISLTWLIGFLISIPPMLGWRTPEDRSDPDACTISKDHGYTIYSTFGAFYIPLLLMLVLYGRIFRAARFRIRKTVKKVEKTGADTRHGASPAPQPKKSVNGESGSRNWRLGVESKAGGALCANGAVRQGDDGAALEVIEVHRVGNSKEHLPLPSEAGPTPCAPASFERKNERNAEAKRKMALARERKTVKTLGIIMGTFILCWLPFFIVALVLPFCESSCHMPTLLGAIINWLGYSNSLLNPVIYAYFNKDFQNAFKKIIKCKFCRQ

[16] = biological target: 5-hydroxytryptamine receptor 2B (Homo sapiens, UniProt P41595); format: functional, cell-based
[17] = biological target: T5, Alpha-2A adrenergic receptor (Homo sapiens, UniProt P08913)
T5 sequence (P08913 whole entry): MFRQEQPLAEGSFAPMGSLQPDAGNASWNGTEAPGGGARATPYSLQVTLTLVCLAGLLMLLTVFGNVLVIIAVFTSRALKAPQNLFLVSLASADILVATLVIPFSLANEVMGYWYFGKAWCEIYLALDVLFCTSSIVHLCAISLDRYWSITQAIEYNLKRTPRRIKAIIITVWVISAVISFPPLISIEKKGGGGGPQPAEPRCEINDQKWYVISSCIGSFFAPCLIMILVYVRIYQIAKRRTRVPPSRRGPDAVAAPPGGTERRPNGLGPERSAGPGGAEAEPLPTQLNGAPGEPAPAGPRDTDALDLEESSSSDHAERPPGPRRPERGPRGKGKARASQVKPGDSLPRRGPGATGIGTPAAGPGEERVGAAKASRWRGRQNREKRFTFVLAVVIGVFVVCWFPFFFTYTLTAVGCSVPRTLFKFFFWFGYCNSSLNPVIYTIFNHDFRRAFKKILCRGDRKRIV

[18] = biological target: T1, Thromboxane A2 receptor; format: functional, cell-based; remark: listed apart in the source
Note: assay procedure not described here.

D(1A) dopamine receptor, sequence (P21728 whole entry): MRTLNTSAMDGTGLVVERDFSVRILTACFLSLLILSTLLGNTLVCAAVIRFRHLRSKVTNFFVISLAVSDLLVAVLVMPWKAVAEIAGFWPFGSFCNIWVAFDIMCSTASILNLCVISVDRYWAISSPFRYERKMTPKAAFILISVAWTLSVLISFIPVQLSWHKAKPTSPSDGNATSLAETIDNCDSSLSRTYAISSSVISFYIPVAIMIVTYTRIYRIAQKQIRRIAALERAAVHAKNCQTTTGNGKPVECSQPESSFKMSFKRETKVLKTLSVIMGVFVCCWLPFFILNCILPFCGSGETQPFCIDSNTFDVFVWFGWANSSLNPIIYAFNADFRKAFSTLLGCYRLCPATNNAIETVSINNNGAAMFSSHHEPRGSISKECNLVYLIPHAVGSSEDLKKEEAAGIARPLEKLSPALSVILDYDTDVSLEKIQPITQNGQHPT
Acetylcholinesterase, sequence (P22303 whole entry): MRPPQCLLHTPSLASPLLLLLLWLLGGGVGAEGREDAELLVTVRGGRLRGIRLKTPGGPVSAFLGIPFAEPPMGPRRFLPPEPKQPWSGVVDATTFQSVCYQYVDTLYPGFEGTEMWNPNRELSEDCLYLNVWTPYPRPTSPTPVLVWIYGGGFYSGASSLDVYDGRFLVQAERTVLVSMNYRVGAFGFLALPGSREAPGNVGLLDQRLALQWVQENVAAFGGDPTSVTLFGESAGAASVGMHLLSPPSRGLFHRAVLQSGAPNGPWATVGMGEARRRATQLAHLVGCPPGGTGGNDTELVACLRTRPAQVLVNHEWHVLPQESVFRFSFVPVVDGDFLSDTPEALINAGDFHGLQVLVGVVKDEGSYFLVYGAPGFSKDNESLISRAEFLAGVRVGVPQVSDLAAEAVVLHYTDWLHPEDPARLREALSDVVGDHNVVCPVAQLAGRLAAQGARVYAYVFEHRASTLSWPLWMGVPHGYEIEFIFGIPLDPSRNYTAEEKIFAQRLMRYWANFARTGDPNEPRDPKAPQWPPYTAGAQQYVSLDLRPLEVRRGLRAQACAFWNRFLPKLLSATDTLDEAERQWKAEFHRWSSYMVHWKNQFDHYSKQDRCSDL
D(3) dopamine receptor, sequence (P35462 whole entry): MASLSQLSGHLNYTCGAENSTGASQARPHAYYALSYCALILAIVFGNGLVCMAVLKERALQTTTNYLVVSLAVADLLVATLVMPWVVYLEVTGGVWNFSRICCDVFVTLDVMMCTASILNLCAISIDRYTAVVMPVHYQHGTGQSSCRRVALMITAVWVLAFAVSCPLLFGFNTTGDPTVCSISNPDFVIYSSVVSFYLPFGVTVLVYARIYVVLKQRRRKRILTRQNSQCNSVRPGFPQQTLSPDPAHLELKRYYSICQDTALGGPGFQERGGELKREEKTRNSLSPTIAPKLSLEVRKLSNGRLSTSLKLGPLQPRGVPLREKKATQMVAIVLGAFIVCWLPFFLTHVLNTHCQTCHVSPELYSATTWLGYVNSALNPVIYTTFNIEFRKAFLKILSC
3',5'-cyclic-AMP phosphodiesterase 4A, sequence (P27815 whole entry): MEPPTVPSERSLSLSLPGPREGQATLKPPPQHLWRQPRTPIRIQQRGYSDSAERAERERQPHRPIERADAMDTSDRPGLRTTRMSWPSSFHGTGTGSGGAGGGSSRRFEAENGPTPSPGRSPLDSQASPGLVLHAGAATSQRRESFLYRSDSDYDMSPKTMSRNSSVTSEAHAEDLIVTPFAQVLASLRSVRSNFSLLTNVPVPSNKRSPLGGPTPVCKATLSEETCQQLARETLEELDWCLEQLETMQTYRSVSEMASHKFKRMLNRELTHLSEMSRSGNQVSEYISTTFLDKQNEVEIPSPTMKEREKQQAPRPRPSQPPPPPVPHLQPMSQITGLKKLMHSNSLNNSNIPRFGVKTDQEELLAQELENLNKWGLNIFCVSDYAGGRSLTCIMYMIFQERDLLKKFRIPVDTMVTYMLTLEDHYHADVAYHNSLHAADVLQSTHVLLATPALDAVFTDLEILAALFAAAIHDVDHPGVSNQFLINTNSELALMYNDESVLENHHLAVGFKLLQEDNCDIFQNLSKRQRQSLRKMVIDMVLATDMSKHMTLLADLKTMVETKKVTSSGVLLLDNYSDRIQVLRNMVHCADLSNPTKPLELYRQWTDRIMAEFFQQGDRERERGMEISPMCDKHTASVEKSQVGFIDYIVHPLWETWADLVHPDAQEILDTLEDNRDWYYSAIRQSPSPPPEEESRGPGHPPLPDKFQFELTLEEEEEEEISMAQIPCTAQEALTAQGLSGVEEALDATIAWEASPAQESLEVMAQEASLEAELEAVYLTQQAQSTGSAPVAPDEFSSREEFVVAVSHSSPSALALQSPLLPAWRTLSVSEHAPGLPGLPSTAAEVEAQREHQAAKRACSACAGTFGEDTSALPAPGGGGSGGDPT
Sodium-dependent dopamine transporter, sequence (Q01959 whole entry): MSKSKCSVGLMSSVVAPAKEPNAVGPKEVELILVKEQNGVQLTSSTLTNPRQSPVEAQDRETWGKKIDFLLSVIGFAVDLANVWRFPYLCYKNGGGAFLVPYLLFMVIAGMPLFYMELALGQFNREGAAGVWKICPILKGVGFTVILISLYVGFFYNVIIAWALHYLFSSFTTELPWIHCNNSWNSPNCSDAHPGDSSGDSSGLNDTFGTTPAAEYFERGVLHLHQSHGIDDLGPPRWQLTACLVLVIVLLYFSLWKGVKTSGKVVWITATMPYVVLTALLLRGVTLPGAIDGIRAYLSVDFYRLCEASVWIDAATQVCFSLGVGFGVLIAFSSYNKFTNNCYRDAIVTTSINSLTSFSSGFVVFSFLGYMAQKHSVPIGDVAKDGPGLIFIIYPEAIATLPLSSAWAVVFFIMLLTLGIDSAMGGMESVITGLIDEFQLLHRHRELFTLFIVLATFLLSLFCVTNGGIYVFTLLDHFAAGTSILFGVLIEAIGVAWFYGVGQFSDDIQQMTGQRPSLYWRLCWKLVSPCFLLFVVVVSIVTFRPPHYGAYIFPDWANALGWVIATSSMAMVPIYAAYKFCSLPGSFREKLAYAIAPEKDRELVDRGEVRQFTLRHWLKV
Bile salt export pump, sequence (O95342 whole entry): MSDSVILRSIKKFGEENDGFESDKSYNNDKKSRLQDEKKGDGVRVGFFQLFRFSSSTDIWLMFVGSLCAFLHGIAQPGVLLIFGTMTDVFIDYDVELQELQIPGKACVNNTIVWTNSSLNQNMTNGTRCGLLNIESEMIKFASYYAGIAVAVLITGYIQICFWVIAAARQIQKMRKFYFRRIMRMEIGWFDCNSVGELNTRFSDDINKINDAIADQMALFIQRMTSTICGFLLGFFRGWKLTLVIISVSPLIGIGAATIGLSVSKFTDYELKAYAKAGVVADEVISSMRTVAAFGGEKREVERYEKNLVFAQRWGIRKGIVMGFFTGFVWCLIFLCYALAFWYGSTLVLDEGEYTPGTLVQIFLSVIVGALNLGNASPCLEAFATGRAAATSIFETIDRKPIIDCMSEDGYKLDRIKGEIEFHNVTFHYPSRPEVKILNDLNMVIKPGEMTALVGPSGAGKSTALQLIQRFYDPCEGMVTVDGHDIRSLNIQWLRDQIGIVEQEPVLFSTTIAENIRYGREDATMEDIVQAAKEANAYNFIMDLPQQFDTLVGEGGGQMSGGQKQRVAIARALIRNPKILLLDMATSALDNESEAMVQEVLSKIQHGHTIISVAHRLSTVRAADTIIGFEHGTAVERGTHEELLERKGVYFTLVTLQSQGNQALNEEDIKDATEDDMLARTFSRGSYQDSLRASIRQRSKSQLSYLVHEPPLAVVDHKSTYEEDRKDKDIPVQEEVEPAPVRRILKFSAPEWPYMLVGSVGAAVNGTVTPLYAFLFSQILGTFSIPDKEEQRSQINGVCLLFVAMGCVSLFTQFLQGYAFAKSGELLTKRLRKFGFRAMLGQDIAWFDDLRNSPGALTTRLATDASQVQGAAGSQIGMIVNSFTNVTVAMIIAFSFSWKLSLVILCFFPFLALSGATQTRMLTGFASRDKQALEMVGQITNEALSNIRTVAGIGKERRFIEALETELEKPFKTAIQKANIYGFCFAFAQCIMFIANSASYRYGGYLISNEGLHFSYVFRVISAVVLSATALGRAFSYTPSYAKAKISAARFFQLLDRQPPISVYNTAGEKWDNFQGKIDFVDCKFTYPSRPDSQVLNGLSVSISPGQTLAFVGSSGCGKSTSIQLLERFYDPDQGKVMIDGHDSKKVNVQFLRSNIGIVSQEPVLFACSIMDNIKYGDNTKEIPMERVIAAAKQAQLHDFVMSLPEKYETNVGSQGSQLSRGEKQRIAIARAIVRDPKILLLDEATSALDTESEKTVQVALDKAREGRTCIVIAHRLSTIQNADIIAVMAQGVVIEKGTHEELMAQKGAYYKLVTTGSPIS
Mu-type opioid receptor, sequence (P35372 whole entry): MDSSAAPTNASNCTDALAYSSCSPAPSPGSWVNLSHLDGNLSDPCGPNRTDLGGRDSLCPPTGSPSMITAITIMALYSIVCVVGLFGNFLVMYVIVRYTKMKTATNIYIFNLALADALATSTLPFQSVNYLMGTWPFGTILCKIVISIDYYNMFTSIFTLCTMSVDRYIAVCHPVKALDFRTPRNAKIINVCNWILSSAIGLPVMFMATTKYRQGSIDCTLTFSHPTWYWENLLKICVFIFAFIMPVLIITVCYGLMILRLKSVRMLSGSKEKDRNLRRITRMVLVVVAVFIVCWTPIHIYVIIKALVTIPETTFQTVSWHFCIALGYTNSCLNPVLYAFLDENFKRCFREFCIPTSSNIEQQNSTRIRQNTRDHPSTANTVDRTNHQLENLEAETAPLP

CC(=N)N1CC[C@H](SC2=C(C(=O)O)N3C(=O)[C@H]([C@@H](C)O)[C@H]3C2)C1
AC50 [1]: > 300 µM

CC(/C=C1\SC(=S)N(CC(=O)O)C1=O)=C\c1ccccc1
AC50 [1]: 1.6 µM

CC1(C)S[C@@H]2[C@H](NC(=O)[C@H](N)c3ccc(O)cc3)C(=O)N2[C@H]1C(=O)O [AMOXICILLIN]
AC50 [1]: > 300 µM

O=C1CN2Cc3c(ccc(Cl)c3Cl)N=C2N1 [ANAGRELIDE]
AC50 [1]: > 300 µM

CNCC[C@@H](Oc1ccccc1C)c1ccccc1 [ATOMOXETINE]
AC50 [1]: > 300 µM

CCc1oc2ccccc2c1C(=O)c1cc(Br)c(O)c(Br)c1 [BENZBROMARONE]
AC50 [1]: 3 µM

C=C(C)[C@@H]1CCC(C)=C[C@H]1c1c(O)cc(CCCCC)cc1O [CANNABIDIOL]
AC50 [1]: 53 µM

CO/N=C(\C(=O)N[C@@H]1C(=O)N2C(C(=O)O)=C(COC(N)=O)CS[C@H]12)c1ccco1 [CEFUROXIME]
AC50 [1]: > 300 µM

[H]/N=C(\N/C(=N/[H])NCCCCCCNC(=N)NC(=N)Nc1ccc(Cl)cc1)Nc1ccc(Cl)cc1 [CHLORHEXIDINE]
AC50 [1]: 170 µM

Clc1cccc(Cl)c1N=C1NCCN1 [CLONIDINE]
AC50 [1]: > 300 µM

COC(=O)[C@H](c1ccccc1Cl)N1CCc2sccc2C1 [CLOPIDOGREL]
AC50 [1]: 40 µM

CN1C[C@H](C(=O)N[C@]2(C)O[C@@]3(O)[C@@H]4CCCN4C(=O)[C@H](Cc4ccccc4)N3C2=O)C[C@@H]2c3cccc4[nH]cc(c34)C[C@H]21 [DIHYDROERGOTAMINE]
AC50 [1]: 28 µM

CNCC[C@H](Oc1cccc2ccccc12)c1cccs1 [DULOXETINE]
AC50 [1]: > 300 µM

CC1(C)O[C@@H]2C[C@H]3[C@@H]4C[C@H](F)C5=CC(=O)C=C[C@]5(C)[C@H]4[C@@H](O)C[C@]3(C)[C@]2(C(=O)CO)O1 [FLUNISOLIDE]
AC50 [1]: 77 µM

Nc1nc(O)c2ncn(COC(CO)CO)c2n1 [GANCICLOVIR]
AC50 [1]: > 300 µM

C[C@H]1Oc2cc(cnc2N)-c2c(nn(C)c2C#N)CN(C)C(=O)c2ccc(F)cc21 [LORLATINIB]
AC50 [1]: 120 µM

Cc1cnc(NC(=O)C2=C(O)c3ccccc3S(=O)(=O)N2C)s1 [MELOXICAM]
AC50 [1]: 160 µM

CC[C@@H](CO)NC(=O)[C@@H]1C=C2c3cccc4[nH]cc(c34)C[C@H]2N(C)C1 [METHYLERGONOVINE]
AC50 [1]: > 300 µM

CNCCC=C1c2ccccc2CCc2ccccc21 [NORTRIPTYLINE]
AC50 [1]: > 300 µM

COc1ccnc(C[S+]([O-])c2nc3ccc(OC(F)F)cc3[nH]2)c1OC (stereo not given) [PANTOPRAZOLE]
AC50 [1]: 190 µM

COc1ccc(Cc2nccc3cc(OC)c(OC)cc23)cc1OC [PAPAVERINE]
AC50 [1]: 46 µM

CN(C)CCC(c1ccccc1)c1ccccn1 (stereo not given) [PHENIRAMINE]
AC50 [2]: > 30 µM | AC50 [3]: > 30 µM | AC50 [4]: > 30 µM | AC50 [5]: > 30 µM | AC50 [6]: > 30 µM | AC50 [7]: > 30 µM | AC50 [8]: > 30 µM | AC50 [9]: > 30 µM | AC50 [10]: > 30 µM | AC50 [11]: > 30 µM | AC50 [12]: > 30 µM | AC50 [13]: > 30 µM | AC50 [14]: 26.3 µM | AC50 [15]: > 30 µM | AC50 [16]: > 30 µM | AC50 [17]: > 30 µM | AC50 [18]: > 30 µM

O=C1NC(=O)C(c2ccccc2)(c2ccccc2)N1 [PHENYTOIN]
AC50 [1]: > 300 µM

CC(C)(C)C(=O)NCCCC(=O)O [PIVAGABINE]
AC50 [2]: > 30 µM | AC50 [3]: > 30 µM | AC50 [4]: > 30 µM | AC50 [5]: > 30 µM | AC50 [6]: > 30 µM | AC50 [7]: > 30 µM | AC50 [8]: > 30 µM | AC50 [9]: > 30 µM | AC50 [10]: > 30 µM | AC50 [11]: > 30 µM | AC50 [12]: > 30 µM | AC50 [13]: > 30 µM | AC50 [14]: > 30 µM | AC50 [15]: > 30 µM | AC50 [16]: > 30 µM | AC50 [17]: > 30 µM | AC50 [18]: > 30 µM

CC(C)C[C@H](CN)CC(=O)O [PREGABALIN]
AC50 [1]: > 300 µM

CCOc1cc(CC(=O)N[C@@H](CC(C)C)c2ccccc2N2CCCCC2)ccc1C(=O)O [REPAGLINIDE]
AC50 [1]: 9.33 µM

NC(=O)c1ncn([C@@H]2O[C@H](CO)[C@@H](O)[C@H]2O)n1 [RIBAVIRIN]
AC50 [1]: > 300 µM

CN(C)C(=O)c1nc(CNC(=O)CN)n(-c2ccc(Cl)cc2C(=O)c2ccccc2Cl)n1 [RILMAZAFONE]
AC50 [2]: > 30 µM | AC50 [3]: > 30 µM | AC50 [4]: > 30 µM | AC50 [5]: > 30 µM | AC50 [6]: 13.5 µM | AC50 [7]: > 30 µM | AC50 [8]: > 30 µM | AC50 [9]: > 30 µM | AC50 [10]: > 30 µM | AC50 [11]: > 30 µM | AC50 [12]: > 30 µM | AC50 [13]: > 30 µM | AC50 [14]: > 30 µM | AC50 [15]: > 30 µM | AC50 [16]: > 30 µM | AC50 [17]: > 30 µM | AC50 [18]: > 30 µM

O=C(Nc1c(Cl)cncc1Cl)c1ccc(OC(F)F)c(OCC2CC2)c1 [ROFLUMILAST]
AC50 [1]: 4 µM

CCCN(CCC)CCc1cccc2c1CC(=O)N2 [ROPINIROLE]
AC50 [1]: > 300 µM

CCCN(CCc1cccs1)[C@H]1CCc2c(O)cccc2C1 [ROTIGOTINE]
AC50 [1]: 260 µM

CCCCNc1ccc(C(=O)OCCN(C)C)cc1 [TETRACAINE]
AC50 [2]: 8.1 µM | AC50 [3]: > 30 µM | AC50 [4]: > 30 µM | AC50 [5]: > 30 µM | AC50 [6]: > 30 µM | AC50 [7]: 18.5 µM | AC50 [8]: > 30 µM | AC50 [9]: > 30 µM | AC50 [10]: > 30 µM | AC50 [11]: 21.9 µM | AC50 [12]: 1.41 µM | AC50 [13]: > 30 µM | AC50 [14]: > 30 µM | AC50 [15]: > 30 µM | AC50 [16]: > 30 µM | AC50 [17]: > 30 µM | AC50 [18]: > 30 µM

CN1CCN(CCCN2c3ccccc3Sc3ccc(S(=O)(=O)N(C)C)cc32)CC1 [THIOPROPERAZINE]
AC50 [2]: 29 µM | AC50 [3]: > 30 µM | AC50 [4]: > 30 µM | AC50 [5]: > 30 µM | AC50 [6]: > 30 µM | AC50 [7]: 0.003 µM | AC50 [8]: 23.6 µM | AC50 [9]: 0.13 µM | AC50 [10]: 11.6 µM | AC50 [11]: 13.3 µM | AC50 [12]: > 30 µM | AC50 [13]: > 30 µM | AC50 [14]: 16.8 µM | AC50 [15]: 6.09 µM | AC50 [16]: > 30 µM | AC50 [17]: 1.42 µM | AC50 [18]: 9.38 µM

CCCCCCCCCCCCCCCC(=O)OC/C=C(C)/C=C/C=C(C)/C=C/C1=C(C)CCCC1(C)C [VITAMIN A PALMITATE]
AC50 [2]: > 30 µM | AC50 [3]: > 30 µM | AC50 [4]: > 30 µM | AC50 [5]: > 30 µM | AC50 [6]: > 30 µM | AC50 [7]: > 30 µM | AC50 [8]: > 30 µM | AC50 [9]: > 30 µM | AC50 [10]: > 30 µM | AC50 [11]: > 30 µM | AC50 [12]: > 30 µM | AC50 [13]: > 30 µM | AC50 [14]: > 30 µM | AC50 [15]: > 30 µM | AC50 [16]: > 30 µM | AC50 [17]: > 30 µM | AC50 [18]: > 30 µM
